Assay results published in publication PMC11478212, “Antitumoral and Antiproliferative Potential of Synthetic Derivatives of Scorpion Peptide IsCT1 in an Oral Cavity Squamous Carcinoma Model” (Molecules, 2024).

How the values were obtained:
SCC-9 tumor cells = test: Cellular marker expression by flow cytometry; format: cell-based
Protocol: (§1) Figure 6 Analysis of marker expression in tongue squamous cell carcinoma tumor cells. The expression of markers was quantified using flow cytometry after 24 h of treatment with the AC-AFPK-IsCT1 peptide at its IC50 value determined for each cell line. (a) Representative density plots display the distribution of cells with fluorescence intensity; (b) marker expression in SCC-9 tumor cells; (c) marker expression in SCC-25 tumor cells. Bar graphs present protein expression levels as the mean ± SD from three independent experiments. Values are expressed as the mean ± SD from three independent experiments. Statistical differences were determined using ANOVA and Tukey–Kramer multiple comparison tests. * p < 0.05 and *** p < 0.001 denote significance. ns = not significant.
(§2) Tumor cells SSC-9 and SSC-25, both treated with the peptides at their IC50 concentrations for 24 h and control groups (10^5 cells/mL), were incubated at 4 °C for 1 h with 1 μg of specific antibodies conjugated with Alexa Fluor™ 488. Various markers associated with cell death and cell cycle progression, such as caspase 3 and 8, cyclin D1, PCNA, p53, and TNF-α conjugated with Alexa Fluor™ 488, were used as indicated. For intracellular markers, TritonX 0.1% was used for 30 min at room temperature before antibody labeling. Following centrifugation at 1500 rpm and washing with PBS, the supernatant was discarded and the pellet was resuspended in 200 μL of FACS buffer. The reading and analysis of receptor expression on the cell surface of tumor cells were carried out using a FACScanto flow cytometer (BD) with fluorescence intensity FL1-H for the number of events (10,000 events), and the dot plots were acquired and analyzed using FCS Express software.

SCC-25 tumor cells = test: Cellular marker expression by flow cytometry; format: cell-based
Protocol: as §1, §2

normal FN1 cells [1] = test: Mitochondrial membrane electrical potential (ΔΨm) by flow cytometry; format: cell-based, human; details: 24 h, IsCT-P and AC-AFPK-IsCT1 at IC50, others 100 µM, MitoRed, compared to control cells, mean ± SD of three independent experiments
Protocol: Figure 4 Analysis of mitochondrial electrical potential (ΔΨm) using flow cytometry following a 24 h treatment with synthetic analogs of IsCT1 peptides. The indicated cells were treated at the IC50 values obtained for the IsCT-P and AC-AFPK-IsCT1 peptides and at a concentration of 100 µM for the other peptides. (a) Representative histograms of cell distribution according to ΔΨm; (b) bar graph showing ΔΨm expressed as the mean ± SD of three independent experiments of SCC-9 tumor cells; (c) bar graph showing ΔΨm expressed as the mean ± SD of three independent experiments of SCC-25 tumor cells; (d) bar graph showing ΔΨm expressed as the mean ± SD of three independent experiments of normal FN1 cells; (e) bar graph showing ΔΨm expressed as the mean ± SD of three independent experiments of normal J774 cells. Statistical differences were obtained using ANOVA and Tukey–Kramer multiple comparison tests. * p < 0.05, ** p < 0.01, and *** p < 0.001 denote significance. ns = not significant.
Tumor (SSC-9 and SSC-25) and normal cells (FN1 and J-774) were subjected to treatment for a period of 24 h at the peptides’ IC50 concentrations. After treatment, the cells were trypsinized, centrifuged at 1200 rpm for 5 min, the supernatant was discarded, and the cells were resuspended in complete medium containing MitoRed™ (Sigma-Aldrich, USA) (200 nM/L). […]

normal FN1 cells [2] = test: CFSE-DA proliferation assay (flow cytometry); format: cell-based, human; details: 24 h, IsCT-P and AC-AFPK-IsCT1 at IC50, other peptides at 100 µM, mean ± SD of three independent experiments
Protocol: Figure 2 Assessment of the cellular proliferative index was conducted using flow cytometry following a 24 h treatment with synthetic analogs of the IsCT1 peptide. The treatments were performed using the IC50 values obtained for the IsCT-P and AC-AFPK-IsCT1 peptides and at a concentration of 100 µM for the other peptides. (a) Representative histograms of the proliferative index were analyzed using WinMDI 5.0 software. Each color in the histogram represents a new cell population. (b) Bar graphs represent the mean ± SD of the proliferative index for SCC-9 tumor cells derived from three independent experiments. (c) Bar graphs display the mean ± SD of the proliferative index for SCC-25 tumor cells based on three independent experiments. (d) Bar graphs represent the mean ± SD of the proliferative index for normal FN1 cells from three independent experiments. […] Statistical differences were determined using ANOVA and Tukey–Kramer multiple comparison tests. […]
Tumor (SSC-9 and SSC-25) and normal cells (FN1 and J-774) were plated in 24-well plates at a density of 10^5 cells/mL for 24 h. […] Readings were performed on a FACScanto flow cytometer (BD, Franklin Lakes, NJ, USA) with the number of events set to 10,000 events, and histograms were acquired and analyzed using ModFit LT 5.0 software.

[3] = 24 h at IC50, compared to control cells, mean ± SD of three independent experiments
[4] = 24 h at IC50, mean ± SD of three independent experiments

Row | Substance | change in Cyclin-D1 expression (SCC-9 tumor cells; 24 h at IC50) | increase in caspase 3 expression (SCC-9 tumor cells; [3]) [%] | increase in caspase 8 expression (SCC-9 tumor cells; [3]) [%] | increase in cells expressing TNF-α (SCC-9 tumor cells; [3]) [%] | increase in cells expressing p53 (SCC-9 tumor cells; [3]) [%] | reduction in PCNA expression (SCC-9 tumor cells; [3]) [%] | decrease in Cyclin D1 expression (SCC-25 tumor cells; [3]) [%] | decrease in PCNA expression (SCC-25 tumor cells; [3]) [%] | increase in TNF-α-expressing cells (SCC-25 tumor cells; [4]) [%] | increase in caspase 3 expression (SCC-25 tumor cells; [4]) [%] | increase in caspase 8 expression (SCC-25 tumor cells; [4]) [%] | increase in p53-expressing cells (SCC-25 tumor cells; [4]) [%] | decrease in ΔΨm (normal FN1 cells [1]) | reduction in the proliferative index (normal FN1 cells [2]) [%]
1 | Ac-ALGKFWPKIKSLF-NH2 [AC-AFPK-IsCT1] | No significant changes | 67 ± 4.9 | 61.6 ± 3 | 69.2 ± 2.6 | 60.7 ± 1.6 | 21.4 ± 0.4 | 15 ± 1.3 | 22.8 ± 2.5 | 85.6 ± 8.4 | 86.2 ± 7 | 82.3 ± 5.5 | 83.5 ± 1.8 | No changes | –
2 | H-ILKKIWKPIKKLF-NH2 [IsCT-P] | – | – | – | – | – | – | – | – | – | – | – | – | – | 37.6 ± 3.9
